Source: patent US20160151403A1, “SMALL MOLECULE MODULATORS OF P53 FAMILY SIGNALING” (The Trustees of the University of Pennsylvania, priority 2006, published 2016)

Test system: p73 in HCT116/p53(−/−) cells
Assay: Western blot of p73 protein in HCT116/p53(-/-) cells
Assay type: cell-based, human
Details: FIG. 3F
Description: FIGS. 3A-3F show: Structures (A) of isolated compounds and summary of their effects on the p53 family and transcriptional targets (B). Cell cycle profiles of HCT/p53(+/+) and HCT/p53(−/−) in response to treatment by selected compounds (C-E). The dose of #17 was 200 μM and for #23 it was 10 μM. F, p73 protein levels were elevated in HCT116/p53(−/−) cells in response to treatment by selected compounds at various concentrations as indicated;
Cells were collected and protein concentration was quantified by the Bio-Rad protein assay prior to SDS-PAGE. Proteins were transferred to a PVDF membrane (Immobilon-P, Millipore Corporation, Bedford, Mass.) by a semi-dry transfer apparatus (Bio-Rad Laboratories, Hercules, Calif.). The membranes with transferred proteins were blotted with 10% W/V non-fat dry milk and then incubated with the primary antibody and subsequently secondary antibodies, which were labelled by horseradish peroxidase, or infrared dyes (IR). Signals were visualized by either ECL (Amersham Pharmacia Biotech, England, UK) and exposed to an X-ray film, or scanned by the Odyssey Infared Imaging System (LI-COR Biosciences, Lincoln, Nebr.). Anti-p53, DO-1, was from Santa Cruz biotechnology, Inc. (Santa Cruz, Calif.), anti-p73 (AB-1) and anti-p21 (AB-1) were obtained from Calbiochem (San Diego, Calif.). Anti-ser20 of p53 Cell were obtained from Signaling Technology (Danvers, Mass.) and anti-DR5 antibody was obtained from Cayman Chemical (Ann Arbor, Mich.).
The questioned whether the p53 family member p73 is involved in the p53-responsive transcriptional activity induced by the compounds identified was then tested. p63, the other p53 family member, was not tested, because the TA form of p63 is rarely expressed in malignant and normal tissues except for germ cells of the ovary and testis.

COc1cccc2c1C(=O)c1c(O)c3c(c(O)c1C2=O)CC(O)(/C(C)=N/O)CC3OC1CC(N)C(O)C(C)O1 (centres unmarked) [#14]
p73 protein expression: strong inducers of p73

COc1cccc2c1C(=N)c1c(O)c3c(c(O)c1C2=O)C[C@@](O)(C(C)=O)C[C@@H]3O[C@H]1C[C@H](N)[C@H](O)[C@H](C)O1 [#23]
p73 protein expression: strong inducers of p73
